Patent publication US20250197409A1, “BIFUNCTIONAL COMPOUND AND PHARMACEUTICAL COMPOSITION COMPRISING THE BIFUNCTIONAL COMPOUND, AND METHOD FOR TREATING ANDROGEN RECEPTOR RELATED DISEASE BY USING THE SAME” (ANHORN MEDICINES CO., LTD., priority 2022, published 2025)
Like-named read-outs stand apart in the source and are kept apart here.

Biological target: T1, androgen receptor (Homo sapiens, UniProt P10275, T878A)
T1 construct: host or cells: LNCaP.FGC
Experiment: Androgen receptor degradation assay using Western blot analysis
Type: cell-based
Protocol: Cells not treated with any of the above-mentioned compounds are used as a negative control.
The internal loading control GAPDH was detected using a mouse monoclonal antibody (1:5000) (GTX627408, GeneTex International Corp., HsinChu City, Taiwan R.O.C.) and a goat anti-mouse HRP-conjugated secondary antibody (1:5000 dilution) (C04001, Croyez Bioscience Co., Ltd., Taipei City, Taiwan R.O.C.).
AR remaining percentage was determined by the intensity difference of AR signals (each was normalized by the corresponding internal loading control GAPDH) between the protein samples from the untreated cells (100%) and those from the treated cells. “Cpd. #” indicates the compound number hereinabove.
In addition, several compounds were selected to prepare a treatment stock solutions at 100 nM in RPMI medium. The treatment stock solutions were separately serially diluted (10×) with RPMI medium for treating LNCaP.FGC cells seeded with 2×10^5 cells per well in 24-well tissue culture plates. A calibration curve was determined by the serial diluted samples for each compound, and the concentration needed for 50% AR degradation (AR DC50) for each compound was calculated.

[1] = 24 h, LNCaP.FGC cells, 100 nM, 24 hr, normalized to GAPDH, untreated cells = 100%; read-out: Androgen Receptor Remaining (%)
[2] = 24 h, read-out: Androgen Receptor Remaining (%), LNCaP.FGC cells, 100 nM, 24 hr, normalized to GAPDH, untreated cells = 100%
[3] = read-out: AR DC50 (concentration needed for 50% AR degradation); LNCaP.FGC cells, serial 10x dilutions from 100 nM
[4] = LNCaP.FGC cells, serial 10x dilutions from 100 nM; read-out: AR DC50 (concentration needed for 50% AR degradation)

T1 sequence (P10275 whole entry T878A): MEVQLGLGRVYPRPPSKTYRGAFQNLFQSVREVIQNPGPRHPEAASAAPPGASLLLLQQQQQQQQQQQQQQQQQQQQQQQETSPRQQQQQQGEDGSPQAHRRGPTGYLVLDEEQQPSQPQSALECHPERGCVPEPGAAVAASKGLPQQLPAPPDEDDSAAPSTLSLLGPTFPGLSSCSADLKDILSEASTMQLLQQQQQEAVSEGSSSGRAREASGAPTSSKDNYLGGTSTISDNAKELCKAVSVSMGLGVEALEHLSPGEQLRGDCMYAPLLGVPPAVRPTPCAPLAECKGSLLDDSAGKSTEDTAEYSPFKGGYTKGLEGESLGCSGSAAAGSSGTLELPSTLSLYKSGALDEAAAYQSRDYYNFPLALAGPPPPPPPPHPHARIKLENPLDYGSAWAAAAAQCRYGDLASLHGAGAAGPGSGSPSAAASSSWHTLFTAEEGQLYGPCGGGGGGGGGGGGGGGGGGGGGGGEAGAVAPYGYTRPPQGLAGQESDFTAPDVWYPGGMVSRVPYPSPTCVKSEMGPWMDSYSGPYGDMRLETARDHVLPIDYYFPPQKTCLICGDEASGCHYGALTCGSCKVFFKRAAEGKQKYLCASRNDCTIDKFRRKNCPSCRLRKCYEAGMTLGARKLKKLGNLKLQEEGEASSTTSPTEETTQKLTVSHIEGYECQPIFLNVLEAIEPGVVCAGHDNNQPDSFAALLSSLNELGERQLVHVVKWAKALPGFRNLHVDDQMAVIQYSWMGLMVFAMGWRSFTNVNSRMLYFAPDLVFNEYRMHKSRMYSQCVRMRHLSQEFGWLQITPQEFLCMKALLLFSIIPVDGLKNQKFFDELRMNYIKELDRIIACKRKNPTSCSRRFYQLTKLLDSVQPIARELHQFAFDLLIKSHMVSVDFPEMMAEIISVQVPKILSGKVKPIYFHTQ
T1 sequence (Q96SW2 whole entry partner): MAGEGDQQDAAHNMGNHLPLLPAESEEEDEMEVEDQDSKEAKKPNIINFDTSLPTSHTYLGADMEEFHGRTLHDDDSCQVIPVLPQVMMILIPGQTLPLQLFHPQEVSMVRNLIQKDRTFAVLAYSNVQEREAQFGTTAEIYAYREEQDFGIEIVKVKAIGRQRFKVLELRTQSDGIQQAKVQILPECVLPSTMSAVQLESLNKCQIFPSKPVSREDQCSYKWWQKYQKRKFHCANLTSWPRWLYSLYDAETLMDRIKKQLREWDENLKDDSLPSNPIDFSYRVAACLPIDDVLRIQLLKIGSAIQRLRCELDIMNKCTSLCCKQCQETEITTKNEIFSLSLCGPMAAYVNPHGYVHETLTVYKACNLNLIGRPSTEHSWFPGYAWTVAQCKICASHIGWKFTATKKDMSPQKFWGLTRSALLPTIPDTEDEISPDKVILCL

SMILES | remaining activity at 0.1 µM [2] [%] | DC50 [3] [nM] | other results
Cn1c2c(c3ccc(OCC4CCN(c5ccc(C(=O)N[C@H]6CC[C@H](Oc7ccc(C#N)c(Cl)c7)CC6)cn5)CC4)cc31)C(=O)N(C1CCC(=O)NC1=O)C2=O (some centres unmarked) [Compound 35] |  |  | remaining activity at 0.1 µM [1]: 75%
CCn1c2c(c3ccc(OCCCN4CCN(c5ccc(C(=O)N[C@H]6CC[C@H](Oc7ccc(C#N)c(Cl)c7)CC6)cc5)CC4)cc31)C(=O)N(C1CCC(=O)NC1=O)C2=O (some centres unmarked) [Compound 27] | 107 |  | 
CCn1c2c(c3ccc(OCCCN4CC=C(c5ccc(C(=O)N[C@H]6CC[C@H](N(C)c7ccc(C#N)c(Cl)c7)CC6)nn5)CC4)cc31)C(=O)N(C1CCC(=O)NC1=O)C2=O (some centres unmarked) [Compound 201] |  | 10 to 25 | 
Cn1c2c(c3ccc(OCCCN4CCN(c5ccc(C(=O)N[C@H]6C(C)(C)[C@H](Oc7ccc(C#N)c(Cl)c7)C6(C)C)nc5)CC4)cc31)C(=O)N(C1CCC(=O)NC1=O)C2=O (some centres unmarked) [Compound 11] |  |  | remaining activity at 0.1 µM [1]: 73%
Cn1c2c(c3ccc(OCCN4CCC(c5ncc(C(=O)N[C@H]6CC[C@H](Oc7ccc(C#N)c(Cl)c7)CC6)cn5)CC4)cc31)C(=O)N(C1CCC(=O)NC1=O)C2=O (some centres unmarked) [Compound 45] |  |  | DC50 [4]: 25 to 100 nM
CCn1c2c(c3ccc(OCCCN4CCC(C5CCN(c6ccc(C(=O)N[C@H]7CC[C@H](Oc8ccc(C#N)c(Cl)c8)CC7)nn6)CC5)CC4)cc31)C(=O)N(C1CCC(=O)NC1=O)C2=O (some centres unmarked) [Compound 157] | 18 | 10 to 25 | 
CCn1c2c(c3ccc(OCC(=O)N4CCC5(CC4)CN(c4ccc(C(=O)N[C@H]6CC[C@H](N(C)c7ccc(C#N)c(Cl)c7)CC6)nn4)C5)cc31)C(=O)N(C1CCC(=O)NC1=O)C2=O (some centres unmarked) [Compound 129] | 63 |  | 
CCn1c2c(c3ccc(OCCCN4CC5(CCN(c6ccc(C(=O)N[C@H]7CC[C@H](Oc8ccc(C#N)c(Cl)c8)CC7)nn6)CC5)C4)cc31)C(=O)N(C1CCC(=O)N(CO)C1=O)C2=O (some centres unmarked) [Compound 95] | 1 | 10 to 25 | 
CCn1c2c(c3ccc(OCC(C)CN4CCN(c5ccc(C(=O)N[C@H]6CC[C@H](N(C)c7ccc(C#N)c(Cl)c7)CC6)nn5)CC4)cc31)C(=O)N(C1CCC(=O)NC1=O)C2=O (some centres unmarked) [Compound 193] |  | 25 to 100 | 
CCn1c2c(c3ccc(OCCCN4CCC5(CC4)CCN(c4ccc(C(=O)N[C@H]6CC[C@H](N(C)c7ccc(C#N)c(Cl)c7)CC6)nn4)CC5)cc31)C(=O)N(C1CCC(=O)NC1=O)C2=O (some centres unmarked) [Compound 181] |  | < 10 | 
CN(c1ccc(C#N)c(Cl)c1)[C@H]1CC[C@H](NC(=O)c2ccc(N3CC4(CCN(CCOc5ccc6c7c(n(CC(F)F)c6c5)C(=O)N(C5CCC(=O)NC5=O)C7=O)CC4)C3)nn2)CC1 (some centres unmarked) [Compound 108] | 19 |  | 
CCn1c2c(c3ccc(OCCN4CCC5(CC4)CCN(c4ccc(C(=O)N[C@H]6CC[C@H](N(C)c7ccc(C#N)c(Cl)c7)CC6)nn4)CC5)cc31)C(=O)N(C1CCC(=O)NC1=O)C2=O (some centres unmarked) [Compound 180] |  | < 10 | 
CCn1c2c(c3ccc(OCCN4CCC(C5CCN(c6ccc(C(=O)N[C@H]7CC[C@H](N(C)c8ccc(C#N)c(Cl)c8)CC7)nn6)CC5)CC4)cc31)C(=O)N(C1CCC(=O)NC1=O)C2=O (some centres unmarked) [Compound 166] | 47 |  | 
CCn1c2c(c3ccc(OCCN4CCN(c5ccc(C(=O)N[C@H]6CC[C@H](Oc7ccc(C#N)c(Cl)c7)CC6)cc5)CC4)cc31)C(=O)N(C1CCC(=O)NC1=O)C2=O (some centres unmarked) [Compound 32] | 59 |  | 
CCn1c2c(c3ccc(OCCCOC4CC5(CCN(c6ccc(C(=O)N[C@H]7CC[C@H](Oc8ccc(C#N)c(Cl)c8)CC7)nn6)CC5)C4)cc31)C(=O)N(C1CCC(=O)NC1=O)C2=O (some centres unmarked) [Compound 172] |  | 25 to 100 | 
CCn1c2c(c3ccc(OCCN4CCN(c5ccc(C(=O)N[C@H]6CC[C@H](Oc7ccc(C#N)c(Cl)c7)CC6)nn5)C[C@H]4C)cc31)C(=O)N(C1CCC(=O)NC1=O)C2=O (some centres unmarked) [Compound 73] | 41 | 25 to 100 | 
CCn1c2c(c3ccc(OCCN4CC5(CCN(c6ccc(C(=O)N[C@H]7CC[C@H](Oc8ccc(C#N)c(Cl)c8)CC7)nn6)CC5)C4)cc31)C(=O)N(C1CCC(=O)NC1=O)C2=O (some centres unmarked) [Compound 80] | 22 | 10 to 25 | 
CCn1c2c(c3ccc(OCCOCCN4CCN(c5ccc(C(=O)N[C@H]6CC[C@H](N(C)c7ccc(C#N)c(Cl)c7)CC6)nn5)CC4)cc31)C(=O)N(C1CCC(=O)NC1=O)C2=O (some centres unmarked) [Compound 114] | 21 | 10 to 25 | 

SMILES | remaining activity at 0.1 µM [2] [%] | DC50 [3] [nM] | other results
Cn1c2c(c3ccc(OCCOC4CC5(CCN(c6ccc(C(=O)N[C@H]7CC[C@H](Oc8ccc(C#N)c(Cl)c8)CC7)nn6)CC5)C4)cc31)C(=O)N(C1CCC(=O)NC1=O)C2=O (some centres unmarked) [Compound 170] |  |  | DC50 [4]: 25 to 100 nM
CCn1c2c(c3ccc(OCCOCCN4CCN(c5ccc(C(=O)N[C@H]6CC[C@H](Oc7ccc(C#N)c(Cl)c7)CC6)nn5)CC4)cc31)C(=O)N(C1CCC(=O)NC1=O)C2=O (some centres unmarked) [Compound 113] | 26 | 10 to 25 | 
CCn1c2c(c3ccc(OCCCN4CCC5(CC4)CCN(c4ccc(C(=O)N[C@H]6CC[C@H](Oc7ccc(C#N)c(Cl)c7)CC6)nn4)CC5)cc31)C(=O)N(C1CCC(=O)NC1=O)C2=O (some centres unmarked) [Compound 183] |  | 10 to 25 | 
CCn1c2c(c3ccc(OCCN4CCN(c5ccc(C(=O)N[C@H]6CC[C@H](Oc7ccc(C#N)c(Cl)c7)CC6)nn5)[C@@H](C)C4)cc31)C(=O)N(C1CCC(=O)NC1=O)C2=O (some centres unmarked) [Compound 57] | 53 |  | 
Cn1c2c(c3ccc(OCCCCOC4CCN(c5ccc(C(=O)N[C@H]6CC[C@H](N(C)c7ccc(C#N)c(Cl)c7)CC6)nn5)CC4)cc31)C(=O)N(C1CCC(=O)NC1=O)C2=O (some centres unmarked) [Compound 186] |  | 10 to 25 | 
CCn1c2c(c3ccc(OCCCOC4CCN(c5ccc(C(=O)N[C@H]6CC[C@H](Oc7ccc(C#N)c(Cl)c7)CC6)nn5)CC4)cc31)C(=O)N(C1CCC(=O)NC1=O)C2=O (some centres unmarked) [Compound 159] | 8 | 25 to 100 | 
CCn1c2c(c3ccc(OCCN4CCC5(CC4)CN(c4ccc(C(=O)N[C@H]6C(C)(C)[C@H](Oc7ccc(C#N)c(Cl)c7)C6(C)C)nn4)C5)cc31)C(=O)N(C1CCC(=O)NC1=O)C2=O (some centres unmarked) [Compound 51] | 20 | 25 to 100 | 
Cn1c2c(c3ccc(OCCCN4CCC(c5ncc(C(=O)N[C@H]6CC[C@H](Oc7ccc(C#N)c(Cl)c7)CC6)cn5)CC4)cc31)C(=O)N(C1CCC(=O)NC1=O)C2=O (some centres unmarked) [Compound 44] |  |  | DC50 [4]: 25 to 100 nM
CCn1c2c(c3ccc(OC(C)CCN4CCN(c5ccc(C(=O)N[C@H]6CC[C@H](Oc7ccc(C#N)c(Cl)c7)CC6)nn5)CC4)cc31)C(=O)N(C1CCC(=O)NC1=O)C2=O (some centres unmarked) [Compound 209] |  | 10 to 25 | 
Cn1c2c(c3cccc(OCCCN4CCN(c5ccc(C(=O)N[C@H]6C(C)(C)[C@H](Oc7ccc(C#N)c(Cl)c7)C6(C)C)cn5)CC4)c31)C(=O)N(C1CCC(=O)NC1=O)C2=O (some centres unmarked) [Compound 24] |  |  | remaining activity at 0.1 µM [1]: 62%
N#Cc1ccc(O[C@H]2CC[C@H](NC(=O)c3ccc(N4CCN(CCCOc5ccc6c7c([nH]c6c5)C(=O)N(C5CCC(=O)NC5=O)C7=O)CC4)nn3)CC2)cc1Cl (some centres unmarked) [Compound 86] |  |  | remaining activity at 0.1 µM [1]: 20%; DC50 [4]: 25 to 100 nM
CCn1c2c(c3ccc(OCCCN4CCN(c5ccc(C(=O)N[C@H]6CC[C@H](Oc7ccc(C#N)c(Cl)c7)CC6)nn5)CC4=O)cc31)C(=O)N(C1CCC(=O)NC1=O)C2=O (some centres unmarked) [Compound 151] | 57 |  | 
CCn1c2c(c3ccc(OCCCN4CCN(c5ccc(C(=O)N[C@H]6CC[C@H](Oc7ccc(C#N)c(Cl)c7)CC6)nn5)[C@H](C)C4)cc31)C(=O)N(C1CCC(=O)NC1=O)C2=O (some centres unmarked) [Compound 98] | 26 | 25 to 100 | 
Cn1c2c(c3cc(OCCN4CCN(c5ccc(C(=O)N[C@H]6C(C)(C)[C@H](Oc7ccc(C#N)c(Cl)c7)C6(C)C)nc5)CC4)ccc31)C(=O)N(C1CCC(=O)NC1=O)C2=O (some centres unmarked) [Compound 10] |  |  | remaining activity at 0.1 µM [1]: 37%; DC50 [4]: 25 to 100 nM
Cn1c2c(c3ccc(OC4CCN(CC5CCN(c6ccc(C(=O)N[C@H]7C(C)(C)[C@H](Oc8ccc(C#N)c(Cl)c8)C7(C)C)nn6)CC5)CC4)cc31)C(=O)N(C1CCC(=O)NC1=O)C2=O (some centres unmarked) [Compound 221] |  |  | DC50 [4]: 10 to 25 nM
CCn1c2c(c3ccc(OCCCN4CCN(c5ccc(C(=O)N[C@H]6C(C)(C)[C@H](Oc7ccc(C#N)c(Cl)c7)C6(C)C)nn5)CC4)cc31)C(=O)N(C1CCC(=O)NC1=O)C2=O (some centres unmarked) [Compound 37] | 55 |  | 
CCn1c2c(c3ccc(OCCCN4CCC5(CC4)CN(c4ccc(C(=O)N[C@H]6C(C)(C)[C@H](Oc7ccc(C#N)c(Cl)c7)C6(C)C)nn4)C5)cc31)C(=O)N(C1CCC(=O)NC1=O)C2=O (some centres unmarked) [Compound 49] | 36 | 25 to 100 | 
